The results in this text go back to patent US8476253B2, “Amide derivative” (Daiichi Sankyo Company, Limited, priority 2009, dated 2013).

Structures are written as SMILES. Where a name gives a salt, the structure may show the parent alone. Read-outs that look alike come from different tables or passages of the source.

In one assay the target is T1, human NK2 receptor (Homo sapiens, UniProt P21452).
T1 construct: expressed in transfected cells; host or cells: COS cells
T1 sequence (P21452 1-398): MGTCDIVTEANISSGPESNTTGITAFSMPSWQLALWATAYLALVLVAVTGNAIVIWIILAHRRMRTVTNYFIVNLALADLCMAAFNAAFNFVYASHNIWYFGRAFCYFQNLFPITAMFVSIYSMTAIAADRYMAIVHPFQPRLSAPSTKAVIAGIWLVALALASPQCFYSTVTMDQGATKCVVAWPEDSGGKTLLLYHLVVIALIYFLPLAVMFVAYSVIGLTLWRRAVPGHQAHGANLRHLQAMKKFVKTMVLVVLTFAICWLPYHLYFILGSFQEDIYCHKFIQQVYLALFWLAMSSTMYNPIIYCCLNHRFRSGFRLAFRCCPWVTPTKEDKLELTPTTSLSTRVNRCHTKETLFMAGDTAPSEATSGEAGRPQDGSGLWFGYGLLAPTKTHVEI
The experiment in a line: Test for binding to human NK2 receptor. Summed up: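 Radioligand binding with [^3H]SR 48968 on cryopreserved COS cells expressing human NK2 receptor (5.0×10^5 cells/mL), in 50 mM Tris-HCl pH 7.4 with BSA, MnCl2 and protease inhibitors. Bound label collected on PEI-treated GF/B filters, counted by liquid scintillation; Ki derived from IC50 and radioligand Kd.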

The next assay has as its system muscarine M3 receptor. Description: Effect of suppressing methacholine-induced airway contraction (in vivo, intratracheal administration). More on the design: species or system guinea pig. As to conditions: guinea pigs, intratracheal administration 60 minutes before 30 μg/kg i.v. methacholine; AUC of increase in airway pressure over 10 minutes. The essentials: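 Anesthetized, gallamine-paralysed, ventilated male Hartley guinea pigs (350–550 g); compound in 5% glucose given intratracheally 60 min before 30 μg/kg i.v. methacholine. Airway pressure AUC over 10 min scored; ID50 from inhibition versus 5% glucose vehicle group.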

The target in a further assay is T2, human M3 receptor (Homo sapiens, UniProt P20309).
T2 construct: expressed in transfected cells; host or cells: CHO cells
T2 sequence (P20309 whole entry): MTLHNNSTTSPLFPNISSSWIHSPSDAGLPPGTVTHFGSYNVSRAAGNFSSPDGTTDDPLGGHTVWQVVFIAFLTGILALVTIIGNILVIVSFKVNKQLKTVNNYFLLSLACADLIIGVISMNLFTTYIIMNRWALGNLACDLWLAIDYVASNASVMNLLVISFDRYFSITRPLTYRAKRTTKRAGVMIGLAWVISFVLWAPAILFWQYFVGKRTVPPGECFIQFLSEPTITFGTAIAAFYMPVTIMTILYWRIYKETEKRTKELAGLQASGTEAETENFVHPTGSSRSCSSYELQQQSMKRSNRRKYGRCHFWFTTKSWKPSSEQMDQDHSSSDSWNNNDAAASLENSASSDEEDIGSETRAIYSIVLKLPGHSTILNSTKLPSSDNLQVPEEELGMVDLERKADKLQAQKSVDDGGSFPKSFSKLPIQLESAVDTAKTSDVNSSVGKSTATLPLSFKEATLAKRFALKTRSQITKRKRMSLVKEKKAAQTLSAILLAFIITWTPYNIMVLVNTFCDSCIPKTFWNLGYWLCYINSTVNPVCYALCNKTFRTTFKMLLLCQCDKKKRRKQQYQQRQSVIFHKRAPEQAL
Description: Test for binding to human M3 receptor. Summed up: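 CHO-cell crude membranes expressing human M3 were incubated with [N-methyl-3H]-(−)-scopolamine methyl chloride in 50 mM Tris-HCl, 0.5 mM EDTA, pH 7.4, for 60 min at room temperature. Bound ligand was collected on PEI-pretreated glass-fibre filters and counted by liquid scintillation. Ki was calculated from IC50 and the radioligand Kd.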

A further assay has as its target T3, substance P receptor (Cavia porcellus, UniProt P30547).
T3 construct: A preparation of a crude lung membrane sample was prepared; from tissue; host or cells: guinea-pig lung (crude membrane sample)
Description: Test for binding to guinea-pig substance P receptor (crude lung membrane sample). The following applies: crude guinea-pig lung membrane sample, [3H]substance P; Ki from IC50 and Kd; read-out: Ki. The protocol:
A preparation of a crude lung membrane sample was prepared, and a test for binding of a test substance to the sample was performed according to the method described in EP0336230A2.
The binding effect of the test substance to a substance P receptor was calculated as an affinity (Ki) of the test substance for the substance P receptor from a 50% binding concentration (IC50) and an affinity (Kd) of [^3H]substance P for the substance P receptor.

Setting [1] is: COS cells expressing human NK2 receptor, [3H]SR 48968 1 nM, Ki from IC50 and Kd, read-out: Ki.
Setting [2] is: CHO cells expressing human M3 receptor, [N-methyl-3H]-(-)-Scopolamine methyl chloride 0.5 nM, Ki from IC50 and Kd, read-out: Ki.

T3 sequence (P30547 whole entry): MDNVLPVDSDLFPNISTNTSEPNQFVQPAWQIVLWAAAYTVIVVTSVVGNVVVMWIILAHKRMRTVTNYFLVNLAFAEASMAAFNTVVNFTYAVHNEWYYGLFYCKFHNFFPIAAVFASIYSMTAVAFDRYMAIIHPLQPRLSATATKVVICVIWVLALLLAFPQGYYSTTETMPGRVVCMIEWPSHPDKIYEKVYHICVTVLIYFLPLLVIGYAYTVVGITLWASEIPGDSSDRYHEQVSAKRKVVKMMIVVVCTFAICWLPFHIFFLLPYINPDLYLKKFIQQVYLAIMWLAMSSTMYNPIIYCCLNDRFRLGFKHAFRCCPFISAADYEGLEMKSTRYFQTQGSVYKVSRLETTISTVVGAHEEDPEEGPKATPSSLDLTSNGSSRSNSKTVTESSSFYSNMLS

As a reminder, the Ki is a dissociation constant, usually derived from enzyme kinetics or from competition with a known ligand. Take `CN(CCN1CCC(OC(=O)Nc2ccccc2-c2ccccc2)CC1)C(=O)CCCN(C)c1ccc(C(=O)N(C)CCCN(C)C(=O)CO[C@H]2Cc3ccccc3C23CCN(CC[C@@]2(c4ccc(F)cc4)CN(C(=O)c4cc(C(F)(F)F)cc(C(F)(F)F)c4)CO2)CC3)cc1` [Example 36, 1-{2-[{4-[{4-[{3-[({[(2S)-1′-{2-[(5R)-3-[3,5-Bis(trifluoromethyl)benzoyl]-5-(4-fluorophenyl)-1,3-oxazolidin-5-yl]ethyl}-2,3-dihydrospiro[indene-1,4′-piperidin]-2-yl]oxy}acetyl)(methyl)amino]propyl}(methyl)carbamoyl]phenyl}(methyl)amino]butanoyl}(methyl)amino]ethyl}piperidin-4-yl biphenyl-2-ylcarbamate trihydrochloride]: the Ki on human NK2 receptor turned out to be 0.96 nM; at human M3 receptor, 1.8 nM; on substance P receptor, 1.4 nM. Besides, the ID50 in the assay on muscarine M3 receptor was found to be 0.0146 mg/kg.
For the compound `CN(CCN1CCC(OC(=O)Nc2ccccc2-c2ccccc2)CC1)C(=O)CCCCCNc1ccc(C(=O)N(C)CCCN(C)C(=O)CO[C@H]2Cc3ccccc3C23CCN(CC[C@@]2(c4ccc(F)cc4)CN(C(=O)c4cc(C(F)(F)F)cc(C(F)(F)F)c4)CO2)CC3)cc1` [Example 72, 1-(2-{[6-({4-[{3-[({[(2S)-1′-{2-[(5R)-3-[3,5-Bis(trifluoromethyl)benzoyl]-5-(4-fluorophenyl)-1,3-oxazolidin-5-yl]ethyl}-2,3-dihydrospiro[indene-1,4′-piperidin]-2-yl]oxy}acetyl)(methyl)amino]propyl}(methyl)carbamoyl]phenyl}amino)hexanoyl](methyl)amino}ethyl)piperidin-4-yl biphenyl-2-ylcarbamate], the values for the Ki at human NK2 receptor (setting [1]), on human M3 receptor (setting [2]) and on substance P receptor were 0.52 nM, 1.6 nM and 1.4 nM, respectively. The same compound showed an ID50 in the assay on muscarine M3 receptor of 0.0635 mg/kg.
For the compound `CN(CCN1CCC(OC(=O)Nc2ccccc2-c2ccccc2)CC1)C(=O)CCCCCCN(C)c1ccc(C(=O)N(C)CCCN(C)C(=O)CO[C@H]2Cc3ccccc3C23CCN(CC[C@@]2(c4ccc(F)cc4)CN(C(=O)c4cc(C(F)(F)F)cc(C(F)(F)F)c4)CO2)CC3)cc1` [Example 40, 1-{2-[{7-[{4-[{3-[({[(2S)-1′-{2-[(5R)-3-[3,5-Bis(trifluoromethyl)benzoyl]-5-(4-fluorophenyl)-1,3-oxazolidin-5-yl]ethyl}-2,3-dihydrospiro[indene-1,4′-piperidin]-2-yl]oxy}acetyl)(methyl)amino]propyl}(methyl)carbamoyl]phenyl}(methyl)amino]heptanoyl}(methyl)amino]ethyl}piperidin-4-yl biphenyl-2-ylcarbamate trihydrochloride], the Ki stood at 0.83 nM on human NK2 receptor, 2 nM at human M3 receptor and 1.6 nM on substance P receptor. The same compound gave an ID50 with muscarine M3 receptor of 0.0754 mg/kg.
Regarding `CN(CCN1CCC(OC(=O)Nc2ccccc2-c2ccccc2)CC1)C(=O)CCNc1ccc(C(=O)N(C)CCCN(C)C(=O)CO[C@H]2Cc3ccccc3C23CCN(CC[C@@]2(c4ccc(F)cc4)CN(C(=O)c4cc(C(F)(F)F)cc(C(F)(F)F)c4)CO2)CC3)cc1` [Example 94, 1-{2-[(N-{4-[{3-[({[(2S)-1′-{2-[(5R)-3-[3,5-Bis(trifluoromethyl)benzoyl]-5-(4-fluorophenyl)-1,3-oxazolidin-5-yl]ethyl}-2,3-dihydrospiro[indene-1,4′-piperidin]-2-yl]oxy}acetyl)(methyl)amino]propyl}(methyl)carbamoyl]phenyl}-β-alanyl)(methyl)amino]ethyl}piperidin-4-yl biphenyl-2-ylcarbamate], the figures for the Ki at human NK2 receptor (setting [1]), at human M3 receptor (setting [2]) and at substance P receptor were 0.75 nM, 2 nM and 0.81 nM, respectively. The compound further had an ID50 in the assay on muscarine M3 receptor of 0.0395 mg/kg.
Turning to `CN(CCN1CCC(OC(=O)Nc2ccccc2-c2ccccc2)CC1)C(=O)CCCCCNc1cccc(C(=O)N(C)CCCN(C)C(=O)CO[C@H]2Cc3ccccc3C23CCN(CC[C@@]2(c4ccc(F)cc4)CN(C(=O)c4cc(C(F)(F)F)cc(C(F)(F)F)c4)CO2)CC3)c1` [Example 43, 1-(2-{[6-({3-[{3-[({[(2S)-1′-{2-[(5R)-3-[3,5-Bis(trifluoromethyl)benzoyl]-5-(4-fluorophenyl)-1,3-oxazolidin-5-yl]ethyl}-2,3-dihydrospiro[indene-1,4′-piperidin]-2-yl]oxy}acetyl)(methyl)amino]propyl}(methyl)carbamoyl]phenyl}amino)hexanoyl](methyl)amino}ethyl)piperidin-4-yl biphenyl-2-ylcarbamate trihydrochloride], the Ki on human NK2 receptor was found to be 1.3 nM; on human M3 receptor it was 2.6 nM; at substance P receptor, 1.6 nM. The same compound returned an ID50 in the assay with muscarine M3 receptor of 0.0757 mg/kg.
On to `CN(CCN1CCC(OC(=O)Nc2ccccc2-c2ccccc2)CC1)C(=O)CCCCCNc1ccc(C(=O)N(C)CCN(C)C(=O)CO[C@H]2Cc3ccccc3C23CCN(CC[C@@]2(c4ccc(F)cc4)CN(C(=O)c4cc(C(F)(F)F)cc(C(F)(F)F)c4)CO2)CC3)cc1` [Example 15, 1-(2-{[6-({4-[{2-[({[(2S)-1-{2-[(5R)-3-[3,5-Bis(trifluoromethyl)benzoyl]-5-(4-fluorophenyl)-1,3-oxazolidin-5-yl]ethyl}-2,3-dihydrospiro[indene-1,4′-piperidin]-2-yl]oxy}acetyl)(methyl)amino]ethyl}(methyl)carbamoyl]phenyl}amino)hexanoyl](methyl)amino}ethyl)piperidin-4-yl biphenyl-2-ylcarbamate], for which the results for the Ki at human NK2 receptor (setting [1]), on human M3 receptor (setting [2]) and on substance P receptor were 0.91 nM, 1.2 nM and 1.5 nM, respectively. Moreover, the ID50 with muscarine M3 receptor was 0.0375 mg/kg.
The like results for `CN(CCN1CCC(OC(=O)Nc2ccccc2-c2ccccc2)CC1)C(=O)CCCCN(C)c1ccc(C(=O)N(C)CCCN(C)C(=O)CO[C@H]2Cc3ccccc3C23CCN(CC[C@@]2(c4ccc(F)cc4)CN(C(=O)c4cc(C(F)(F)F)cc(C(F)(F)F)c4)CO2)CC3)cc1` [Example 38, 1-{2-[{5-[{4-[{3-[({[(2S)-1′-{2-[(5R)-3-[3,5-Bis(trifluoromethyl)benzoyl]-5-(4-fluorophenyl)-1,3-oxazolidin-5-yl]ethyl}-2,3-dihydrospiro[indene-1,4′-piperidin]-2-yl]oxy}acetyl)(methy)amino]propyl}(methyl)carbamoyl]phenyl}(methyl)amino]pentanoyl}(methyl)amino]ethyl}piperidin-4-yl biphenyl-2-ylcarbamate trihydrochloride] were, in that order, 0.89 nM, 1.8 nM, 1.5 nM and 0.0257 mg/kg.
For the compound `Cc1nc(NCCCCCC(=O)N(C)CCN2CCC(OC(=O)Nc3ccccc3-c3ccccc3)CC2)sc1C(=O)N(C)CCCN(C)C(=O)CO[C@H]1Cc2ccccc2C12CCN(CC[C@@]1(c3ccc(F)cc3)CN(C(=O)c3cc(C(F)(F)F)cc(C(F)(F)F)c3)CO1)CC2` [Example 105, 1-(2-{[6-({5-[{3-[({[(2S)-1′-{2-[(5R)-3-[3,5-Bis(trifluoromethyl)benzoyl]-5-(4-fluorophenyl)-1,3-oxazolidin-5-yl]ethyl}-2,3-dihydrospiro[indene-1,4′-piperidin]-2-yl]oxy}acetyl)(methyl)amino]propyl}(methyl)carbamoyl]-4-methyl-1,3-thiazol-2-yl}amino)hexanoyl](methyl)amino}ethyl)piperidin-4-yl biphenyl-2-ylcarbamate trihydrochloride], the figures for the Ki at human NK2 receptor, at human M3 receptor and on substance P receptor were 0.85 nM, 1.4 nM and 2.1 nM, respectively. For the same compound, the ID50 with muscarine M3 receptor was determined as 0.04 mg/kg.
In the case of `CN(CCN1CCC(OC(=O)Nc2ccccc2-c2ccccc2)CC1)C(=O)CCCCCNc1ccc(C(=O)N(C)CCCN(C)C(=O)CO[C@H]2Cc3ccccc3C23CCN(CC[C@@]2(c4ccc(F)cc4)CN(C(=O)c4cc(C(F)(F)F)cc(C(F)(F)F)c4)CO2)CC3)nc1` [Example 9, 1-(2-{[6-({6-[{3-[({[(2S)-1′-{2-[(5R)-3-[3,5-Bis(trifluoromethyl)benzoyl]-5-(4-fluorophenyl)-1,3-oxazolidin-5-yl]ethyl}-2,3-dihydrospiro[indene-1,4′-piperidin]-2-yl]oxy}acetyl)(methyl)amino]propyl}(methyl)carbamoyl]pyridin-3-yl}amino)hexanoyl](methyl)amino}ethyl)piperidin-4-yl biphenyl-2-ylcarbamate], the Ki at human NK2 receptor (setting [1]) turned out to be 0.66 nM; on human M3 receptor (setting [2]) it was 1.3 nM; on substance P receptor it was 2.1 nM. The ID50 in the assay on muscarine M3 receptor is 0.0164 mg/kg.
